Source: ChEMBL document CHEMBL5316297, “Mechanistic Insight of Synthesized 1,4-Dihydropyridines as an Antidiabetic Sword against Reactive Oxygen Species” (J Med Chem, 2023)
pIC50: −log10 of the molar value.

What was measured:
[1] = Cytotoxicity against human MCF-10F cells assessed as cell growth inhibition at 10 uM relative to control; assay type: toxicity, cell-based; conditions: read-out: GI
[2] = Cytotoxicity against human WPE1-NA22 cells assessed as cell growth inhibition at 10 uM relative to control; assay type: toxicity, cell-based; conditions: read-out: GI
[3] = Cytotoxicity against HEK293 cells assessed as cell growth inhibition at 10 uM relative to control; assay type: toxicity, cell-based; conditions: human, read-out: GI
[4] = Cytotoxicity against human MRC5 cells assessed as cell growth inhibition at 10 uM relative to control; assay type: toxicity, cell-based; conditions: read-out: GI
[5] = Cytotoxicity against human ECT1/E6E7 cells assessed as cell growth inhibition at 10 uM relative to control; assay type: toxicity, cell-based; conditions: read-out: GI
[6] = Cytotoxicity against human HCN-1A cells assessed as cell growth inhibition at 10 uM relative to control; assay type: toxicity, cell-based; conditions: read-out: GI
[7] = Cytotoxicity against human THLE-2 cells assessed as cell growth inhibition at 10 uM relative to control; assay type: toxicity, cell-based; conditions: read-out: GI
[8] = Cytotoxicity against human BJ cells assessed as cell growth inhibition at 10 uM relative to control; assay type: toxicity, cell-based; conditions: read-out: GI
[9] = Cytotoxicity against HEK293 cells assessed as cell growth inhibition; assay type: toxicity, cell-based; conditions: human
[10] = Cytotoxicity against human BJ cells assessed as cell growth inhibition; assay type: toxicity, cell-based
[11] = Cytotoxicity against human ECT1/E6E7 cells assessed as cell growth inhibition; assay type: toxicity, cell-based
[12] = Cytotoxicity against human MRC5 cells assessed as cell growth inhibition; assay type: toxicity, cell-based
[13] = Cytotoxicity against human THLE-2 cells assessed as cell growth inhibition; assay type: toxicity, cell-based
[14] = Cytotoxicity against human WPE1-NA22 cells assessed as cell growth inhibition; assay type: toxicity, cell-based
[15] = Cytotoxicity against human HCN-1A cells assessed as cell growth inhibition; assay type: toxicity, cell-based
[16] = Cytotoxicity against human MCF-10F cells assessed as cell growth inhibition; assay type: toxicity, cell-based
[17] = tested on: voltage dependent L/T-type calcium channel; test: Inhibition of voltage dependent L/T-type calcium channel in human SH-SY5Y cells; conditions: sh-sy5y
INS1 [18] = test: Induction of apoptosis in rat INS1 cells assessed as necrotic cells at 1 uM incubated for 36 hrs by Annexin V-FITC/ propidium iodide staining based flow cytometry analysis (reference value: 1.15%); assay type: functional
INS1 [19] = test: Induction of apoptosis in rat INS1 cells assessed as late apoptotic cells at 1 uM incubated for 36 hrs by Annexin V-FITC/ propidium iodide staining based flow cytometry analysis (reference value: 0.19%); assay type: functional
INS1 [20] = test: Induction of apoptosis in rat INS1 cells assessed as total apoptotic cells at 1 uM incubated for 36 hrs by Annexin V-FITC/ propidium iodide staining based flow cytometry analysis (reference value: 0.53%); assay type: functional
INS1 [21] = test: Induction of apoptosis in rat INS1 cells assessed as early apoptotic cells at 1 uM incubated for 36 hrs by Annexin V-FITC/ propidium iodide staining based flow cytometry analysis (reference value: 0.34%); assay type: functional
Alpha amylase = target: T1, Alpha amylase (Homo sapiens, UniProt P0DUB6); test: Inhibition of alpha amylase (unknown origin) measured after 20 to 25 mins
T1 sequence (P0DUB6 whole entry): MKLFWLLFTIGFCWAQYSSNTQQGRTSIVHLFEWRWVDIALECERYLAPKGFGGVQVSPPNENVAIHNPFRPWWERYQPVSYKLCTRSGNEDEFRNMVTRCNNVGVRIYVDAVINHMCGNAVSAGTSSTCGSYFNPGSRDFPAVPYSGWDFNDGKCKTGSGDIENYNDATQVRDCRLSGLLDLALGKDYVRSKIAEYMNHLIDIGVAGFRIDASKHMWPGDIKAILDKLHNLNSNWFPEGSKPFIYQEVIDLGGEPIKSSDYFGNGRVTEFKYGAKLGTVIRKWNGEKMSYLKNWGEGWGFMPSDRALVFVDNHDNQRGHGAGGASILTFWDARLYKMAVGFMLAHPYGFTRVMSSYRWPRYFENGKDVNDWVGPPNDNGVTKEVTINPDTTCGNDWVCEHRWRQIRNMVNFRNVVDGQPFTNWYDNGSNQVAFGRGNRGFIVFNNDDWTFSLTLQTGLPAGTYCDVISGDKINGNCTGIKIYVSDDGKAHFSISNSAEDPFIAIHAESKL

[22] = Acute toxicity in Swiss albino mouse assessed as toxic symptoms up to 2000 mg/kg, po administered for 14 days; assay type: organism-based; conditions: in vivo, 336 h, time 14 day
Mus musculus [23] = test: Antidiabetic activity against high fat diet-STZ-induced diabetic Swiss albino mouse model assessed as reduction in blood glucose level at 0.2 mmol/Kg/day, po administered for 14 days relative to glimepiride; assay type: functional; set-up: scale not given: the % may be the effect or the level left; conditions: time 14 day
[24] = Toxicity in high fat diet-STZ-induced diabetic Swiss albino mouse model assessed as changes in body weight at 0.2 mmol/Kg/day, po administered for 14 days (reference value: 26.6 to 27.8 g); assay type: organism-based; conditions: in vivo, 336 h, time 14 day
[25] = Acute toxicity in Swiss albino mouse assessed as effect on motor alterations up to 2000 mg/kg, po administered for 14 days; assay type: organism-based; conditions: in vivo, 336 h, time 14 day
Mus musculus [26] = test: Antidiabetic activity against high fat diet-STZ-induced diabetic Swiss albino mouse model assessed as serum insulin level at 0.2 mmol/Kg/day, po administered for 14 days by ELISA method (reference value: 16.37 +/- 0.62 uU/ml); assay type: functional; conditions: time 14 day
Mus musculus [27] = test: Antioxidant activity against high fat diet-STZ-induced diabetic Swiss albino mouse model assessed as serum SOD level at 0.2 mmol/Kg/day, po administered for 14 days (reference value: 273.01+/- 6.23 U/ml); assay type: functional; conditions: time 14 day
[28] = Acute toxicity in Swiss albino mouse assessed as effect on mortality up to 2000 mg/kg, po administered for 14 days; assay type: organism-based; conditions: in vivo, 336 h, time 14 day
[29] = Acute toxicity in Swiss albino mouse assessed as effect on behavioural change up to 2000 mg/kg, po administered for 14 days; assay type: organism-based; conditions: in vivo, 336 h, time 14 day
Mus musculus [30] = test: Antidiabetic activity against high fat diet-STZ-induced diabetic Swiss albino mouse model assessed as insulin resistance by measuring serum TNFalpha level at 0.2 mmol/Kg/day, po administered for 14 days by ELISA method (reference value: 376.50+/-14.50 ng/ml); assay type: functional; conditions: time 14 day
Mus musculus [31] = test: Antioxidant activity against high fat diet-STZ-induced diabetic Swiss albino mouse model assessed as serum MDA level at 0.2 mmol/Kg/day, po administered for 14 days (reference value: 8.70+/- 0.09 nmol/ml); assay type: functional; conditions: time 14 day
Mus musculus [32] = test: Antioxidant activity against high fat diet-STZ-induced diabetic Swiss albino mouse model assessed as serum catalase level at 0.2 mmol/Kg/day, po administered for 14 days (reference value: 378.22+/- 14.45 U/ml); assay type: functional; conditions: time 14 day
Mus musculus [33] = test: Antidiabetic activity against high fat diet-STZ-induced diabetic Swiss albino mouse model assessed as insulin resistance by measuring serum IL6 level at 0.2 mmol/Kg/day, po administered for 14 days by ELISA method (reference value: 39.30+/-4.14 pg/ml); assay type: functional; conditions: time 14 day
Mus musculus [34] = test: Antidiabetic activity against high fat diet-STZ-induced diabetic Swiss albino mouse model assessed as reduction in blood glucose level at 0.2 mmol/Kg/day, po administered for 14 days relative to control; assay type: functional; set-up: scale not given: the % may be the effect or the level left; conditions: time 14 day
Mus musculus [35] = test: Antidiabetic activity against high fat diet-STZ-induced diabetic Swiss albino mouse model assessed as reduction in blood glucose level at 0.2 mmol/Kg/day, po administered for 14 days; assay type: functional; conditions: time 14 day

SMILES	inhibition at 10 µM [1]	inhibition at 10 µM [2]	inhibition at 10 µM [3]	inhibition at 10 µM [4]	inhibition at 10 µM [5]	inhibition at 10 µM [6]	inhibition at 10 µM [7]	inhibition at 10 µM [8]	Activity [22]	Activity (Mus musculus [23])	Activity [24]	Activity [25]	Activity [28]	Activity [29]	Activity (Mus musculus [34])	Activity (Mus musculus [35])	other results
C[C@H]1O[C@H](O[C@H]2[C@H](O)[C@@H](O)[C@@H](O[C@H]3[C@H](O)[C@@H](O)C(O)O[C@@H]3CO)O[C@@H]2CO)[C@H](O)[C@@H](O)[C@@H]1N[C@H]1C=C(CO)[C@@H](O)[C@H](O)[C@H]1O (stereo partly specified) [ACARBOSE]	10.5%	55.3%	80.7%	32.3%	20.1%	44.3%	19.1%	47.8%									
COc1cccc2c1C(=O)c1c(O)c3c(c(O)c1C2=O)C[C@@](O)(C(=O)CO)C[C@@H]3O[C@H]1C[C@H](N)[C@H](O)[C@H](C)O1 [DOXORUBICIN]	41.6%	57.1%	46%	38.4%	33%	40.9%	35.6%	45.8%									GI50 [9]: 9.69 µM; GI50 [10]: 8.91 µM; GI50 [11]: 1.47 µM; GI50 [12]: 12.5 µM; GI50 [13]: 17.1 µM; GI50 [14]: 11.6 µM; GI50 [15]: 11.2 µM; GI50 [16]: 14.2 µM
COC(=O)C1=C(C)NC(C)=C(C(=O)OC)C1c1ccccc1[N+](=O)[O-] [NIFEDIPINE]																	pIC50 [17]: 4.66
CN(N=O)C(=O)N[C@@H](C=O)[C@@H](O)[C@H](O)[C@H](O)CO [STREPTOZOCIN]																	Activity (INS1 [18]): 11.65%; Activity (INS1 [19]): 0.47%; Activity (INS1 [20]): 2.09%; Activity (INS1 [21]): 1.62%
O=c1c(O)c(-c2ccc(O)c(O)c2)oc2cc(O)cc(O)c12 [QUERCETIN]																	IC50 (Alpha amylase): 8.21 µM
CCOC(=O)C1=C(C)NC(C)=C(C(=O)OC(C)(C)C)C1c1cccc2c1OCO2 (stereo unspecified)									Non-Toxic	<1%	28.6 g	Non-Toxic	Non-Toxic	Non-Toxic	0.25%	223.65 mg/dL	Activity (Mus musculus [26]): 7.01 uU/ml; Activity (Mus musculus [27]): 175.14 U/ml; Activity (Mus musculus [30]): 1050.5 ng/mL; Activity (Mus musculus [31]): 20.99 nmol/mL; Activity (Mus musculus [32]): 183.21 U/ml; Activity (Mus musculus [33]): 403.17 pg/mL
CCC1=C(C)CN(C(=O)NCCc2ccc(S(=O)(=O)NC(=O)N[C@H]3CC[C@H](C)CC3)cc2)C1=O [GLIMEPIRIDE]	27.1%	27.8%	74%	24.2%	22%	41.6%	28.8%	35.8%			30.92 g				33.5%	198.3 mg/dL	Activity (INS1 [18]): 2.86%; Activity (INS1 [19]): 0.27%; Activity (Mus musculus [26]): 11.88 uU/ml; Activity (INS1 [20]): 0.76%; Activity (Mus musculus [27]): 202.06 U/ml; Activity (Mus musculus [30]): 639.5 ng/mL; Activity (Mus musculus [31]): 14.52 nmol/mL; Activity (Mus musculus [32]): 199.33 U/ml; Activity (Mus musculus [33]): 195.75 pg/mL; Activity (INS1 [21]): 0.49%
COCCOC(=O)C1=C(C)NC(C)=C(C(=O)OCCOC)C1c1cccc2c1OCO2									Non-Toxic	90%	27 g	Non-Toxic	Non-Toxic	Non-Toxic	30.11%	208.41 mg/dL	
CCOC(=O)C1=C(C)NC(C)=C(C(=O)OC(C)(C)C)C1c1ccc2c(c1)OCO2 (stereo unspecified)									Non-Toxic	<1%	27.9 g	Non-Toxic	Non-Toxic	Non-Toxic	0.1%	297.9 mg/dL	
